From patent publication US20110196000A1, “Use of succinate dehydrogenase (SDH) inhibitors in the treatment of plant species from the family of the true grasses” (Bayer CropScience AG, priority 2010, published 2011)

Columns and labels:
Type in all cases: in vivo
[1] = system: infection-free wheat plants of the cultivar Passat; experiment: Glasshouse trial: yield components; settings: glasshouse, sprays at BBCH 39 and 59
[2] = system: infection-free wheat plants of the cultivar Passat; experiment: Glasshouse trial: gas exchange activity of wheat ears; settings: development stage BBCH 75
Method: (§1) In a glasshouse trial under controlled conditions, the effect of bixafen was investigated on the physiology, morphology and abiotic stress tolerance of infection-free wheat plants of the cultivar […] plants were grown in 10-litre containers over a period of 4 months. The substrate used was standard earth type ED 73 (Fröndenberg, Germany)+C-Horizont+Sand (4:2:1). The supply of nutrient to the plants took place by feeding with a 0.2% strength Flory 2 liquid fertilizer solution (from Euflor, Munich) once every two weeks. The plants were supplied with water as required. In each component of the trial, 10 repetitions were carried out.

[3] = system: infection-free wheat plants of the cultivar Passat; experiment: Glasshouse trial: temperature of ears and leaves as measure of transpiration activity
Method: as §1

[4] = system: infection-free wheat plants of the cultivar Passat; experiment: Glasshouse trial: green leaf area by visual scoring; settings: glasshouse
Method: as §1, with “out. To prevent infestation with powdery mildew, Proquinazid (Talius® was applied once. The incidence of aphids and spider mites was avoided by treatments with Karate®, Bulldock® and Sumicidin®. The products under test were applied to the plants, in the form of sequential spray sequences (BBCH 39 and 59). The spray volume was 300 l of water per hectare. [table] The duration of the green coloration of the leaf area was captured on the basis of regular visual scoring of the fraction of the green leaf area.” for “out.”

[5] = system: infection-free wheat plants of the cultivar Passat; experiment: Glasshouse trial: size of the flag leaf; settings: at BBCH 83-85
Method: In a glasshouse trial under controlled conditions, the effect of bixafen was investigated on the physiology, morphology and abiotic stress tolerance of infection-free wheat plants of the cultivar […] plants were grown in 10-litre containers over a period of 4 months. The substrate used was standard earth type ED 73 (Fröndenberg, Germany)+C-Horizont+Sand (4:2:1). The supply of nutrient to the plants took place by feeding with a 0.2% strength Flory 2 liquid fertilizer solution (from Euflor, Munich) once every two weeks. The plants were supplied with water as required. In each component of the trial, 10 repetitions were carried out. To prevent infestation with powdery mildew, Proquinazid (Talius® was applied once. The incidence of aphids and spider mites was avoided by treatments with Karate®, Bulldock® and Sumicidin®. The products under test were applied to the plants, in the form of sequential spray sequences (BBCH 39 and 59). The spray volume was 300 l of water per hectare. [table] Morphological parameters measured, additionally, were the length and width, i.e. the size of the flag leaf. This was greatest with the succinate dehydrogenase (SDH) inhibitor bixafen, in comparison to the other comparison fungicides.

wheat variety Ritmo [6] = experiment: Plot trial: chlorophyll content of leaves (pigment extraction method of Ziegler and Ehle)
wheat variety Ritmo [7] = experiment: Plot trial: yield components; settings: sprays at BBCH 39 and 59
[8] = system: infection-free wheat plants of the cultivar Passat; experiment: Glasshouse trial: time of heading (ear emergence); parameters: time of heading of wheat (ears emerged): unit not given here
Method: as §1

wheat variety Ritmo [9] = experiment: Plot trial in Germany: green leaf area by visual scoring; settings: sprays at BBCH 39 and 59
Method: In Germany a plot trial was set up with the wheat variety Ritmo in order to investigate the effect of bixafen on the physiology, morphology and abiotic stress tolerance of wheat plants under realistic agricultural conditions. The products under test were applied to the plants, in the form of sequential spray sequences (BBCH 39 and 59). The spray volume was 400 l of water per hectare. In each trial component, 5 repetitions were carried out. [table] The duration of green coloration of the leaf area was captured by regular visual scoring of the fraction of green leaf area.

[10] = 68 days after second fungicide application (so in the source)
[11] = 75 days after second fungicide application (so in the source)
[12] = 82 days after second fungicide application (so in the source)
[13] = 89 days after second fungicide application (so in the source)
[14] = 96 days after second fungicide application (so in the source)
[15] = 103 days after second fungicide application (so in the source)
[16] = 110 days after second fungicide application (so in the source)
[17] = 117 days after second fungicide application (so in the source)
[18] = 7 days after second fungicide application
[19] = 14 days after second fungicide application
[20] = 21 days after second fungicide application
[21] = 28 days after second fungicide application
[22] = 35 days after second fungicide application
[23] = 42 days after second fungicide application

CO/N=C(/C1=NOCCO1)c1ccccc1Oc1ncnc(Oc2ccccc2Cl)c1F [Fluoxastrobin]
Ears/pot [1]: 41.0 | Harvest Index [1]: 29.0% | Kernels/ear [1]: 21.9 | Straw [1]: 74.5 g/pot | TKM (thousand-kernel mass) [1]: 34.3 g | Yield [1]: 30.5 g/pot | Photosynthesis (gas exchange activity of wheat ears) [2]: −2.44 a CO2 per ear | Respiration (gas exchange activity of wheat ears) [2]: 2.96 b CO2 per ear | Temperature (as a measure of the transpiration activity) ([3]; BBCH 75, ear): 23.1 °C | Temperature (as a measure of the transpiration activity) ([3]; BBCH 75, leaf): 22.3 °C | Temperature (as a measure of the transpiration activity) ([3]; BBCH 80, ear): 18.9 °C | Temperature (as a measure of the transpiration activity) ([3]; BBCH 80, leaf): 16.5 °C | Temperature (as a measure of the transpiration activity) ([3]; BBCH 85, ear): 24.8 °C | Temperature (as a measure of the transpiration activity) ([3]; BBCH 85, leaf): 23.4 °C | Temperature (as a measure of the transpiration activity) ([3]; BBCH 90, ear): 23.9 °C | Temperature (as a measure of the transpiration activity) ([3]; BBCH 90, lear (so in the source)): 22.7 °C | green leaf area of the flag leaf (F) [4, 10]: 100 % leaf area | green leaf area of the second-from-top leaf (F-1) [4, 10]: 100 % leaf area | green leaf area of the third-from-top leaf (F-2) [4, 10]: 100 % leaf area | green leaf area of the flag leaf (F) [4, 11]: 100 % leaf area | green leaf area of the second-from-top leaf (F-1) [4, 11]: 100 % leaf area | green leaf area of the third-from-top leaf (F-2) [4, 11]: 95 % leaf area | green leaf area of the flag leaf (F) [4, 12]: 100 % leaf area | green leaf area of the second-from-top leaf (F-1) [4, 12]: 95 % leaf area | green leaf area of the third-from-top leaf (F-2) [4, 12]: 82 % leaf area | green leaf area of the flag leaf (F) [4, 13]: 95 % leaf area | green leaf area of the second-from-top leaf (F-1) [4, 13]: 84 % leaf area | green leaf area of the third-from-top leaf (F-2) [4, 13]: 54 % leaf area | green leaf area of the flag leaf (F) [4, 14]: 85 % leaf area | green leaf area of the second-from-top leaf (F-1) [4, 14]: 56 % leaf area | green leaf area of the third-from-top leaf (F-2) [4, 14]: 29 % leaf area | green leaf area of the flag leaf (F) [4, 15]: 60 % leaf area | green leaf area of the second-from-top leaf (F-1) [4, 15]: 30 % leaf area | green leaf area of the third-from-top leaf (F-2) [4, 15]: 18 % leaf area | green leaf area of the flag leaf (F) [4, 16]: 37 % leaf area | green leaf area of the second-from-top leaf (F-1) [4, 16]: 18 % leaf area | green leaf area of the third-from-top leaf (F-2) [4, 16]: 7 % leaf area | green leaf area of the flag leaf (F) [4, 17]: 12 % leaf area | green leaf area of the second-from-top leaf (F-1) [4, 17]: 6 % leaf area | green leaf area of the third-from-top leaf (F-2) [4, 17]: 0 % leaf area | Length of the flag leaf [5]: 25.6 cm | Width of the flag leaf [5]: 1.4 cm | Area of the flag leaf ([5]; calculated using the formula A = 0.67 × length × width): 24.01 cm^2 | Area [rel.] of the flag leaf ([5]; untreated = 100): 110 rel. | Chlorophyll content (wheat variety Ritmo [6]; BBCH 75 (mature milk), leaf F): 1924 µg/g | Chlorophyll content (wheat variety Ritmo [6]; BBCH 75 (mature milk), leaf F-1): 1671 µg/g | Chlorophyll content (wheat variety Ritmo [6]; BBCH 75 (mature milk), leaf F-2): 1126 µg/g | Chlorophyll content (wheat variety Ritmo [6]; BBCH 85 (mature dough), leaf F): 630 µg/g | Chlorophyll content (wheat variety Ritmo [6]; BBCH 85 (mature dough), leaf F-1): 534 µg/g | Chlorophyll content (wheat variety Ritmo [6]; BBCH 85 (mature dough), leaf F-2): 415 µg/g | Ears/m^2 (wheat variety Ritmo [7]): 409 | Harvest Index (wheat variety Ritmo [7]): 58.1 | Straw (wheat variety Ritmo [7]): 581 g m^−2 | TKM (thousand-kernel mass) (wheat variety Ritmo [7]): 45.8 g | Yield (wheat variety Ritmo [7]): 8.2 t ha^−1 | time of heading of wheat (ears emerged) ([8]; 45 days after sowing): 11.4 | time of heading of wheat (ears emerged) ([8]; 50 days after sowing): 33.1 | time of heading of wheat (ears emerged) ([8]; 55 days after sowing): 43.8 | time of heading of wheat (ears emerged) ([8]; 60 days after sowing): 49.9 | time of heading of wheat (ears emerged) ([8]; 65 days after sowing): 61.1 | time of heading of wheat (ears emerged) ([8]; 70 days after sowing): 76.4 | time of heading of wheat (ears emerged) ([8]; 75 days after sowing): 87.8 | time of heading of wheat (ears emerged) ([8]; 80 days after sowing): 93.1 | time of heading of wheat (ears emerged) ([8]; 85 days after sowing): 97.1 | green leaf area of the flag leaf (wheat variety Ritmo [9]; [18]): 98.7 % leaf area | green leaf area of the second-from-top leaf (F-1) (wheat variety Ritmo [9]; [18]): 98.8 % leaf area | green leaf area of the third-from-top leaf (F-2) (wheat variety Ritmo [9]; [18]): 96.3 % leaf area | green leaf area of the flag leaf (wheat variety Ritmo [9]; [19]): 98.7 % leaf area | green leaf area of the second-from-top leaf (F-1) (wheat variety Ritmo [9]; [19]): 98.0 % leaf area | green leaf area of the third-from-top leaf (F-2) (wheat variety Ritmo [9]; [19]): 95.5 % leaf area | green leaf area of the flag leaf (wheat variety Ritmo [9]; [20]): 98.3 % leaf area | green leaf area of the second-from-top leaf (F-1) (wheat variety Ritmo [9]; [20]): 96.1 % leaf area | green leaf area of the third-from-top leaf (F-2) (wheat variety Ritmo [9]; [20]): 92.1 % leaf area | green leaf area of the flag leaf (wheat variety Ritmo [9]; [21]): 95.8 % leaf area | green leaf area of the second-from-top leaf (F-1) (wheat variety Ritmo [9]; [21]): 93.5 % leaf area | green leaf area of the third-from-top leaf (F-2) (wheat variety Ritmo [9]; [21]): 88.5 % leaf area | green leaf area of the flag leaf (wheat variety Ritmo [9]; [22]): 63.0 % leaf area | green leaf area of the second-from-top leaf (F-1) (wheat variety Ritmo [9]; [22]): 47.0 % leaf area | green leaf area of the third-from-top leaf (F-2) (wheat variety Ritmo [9]; [22]): 31.5 % leaf area | green leaf area of the flag leaf (wheat variety Ritmo [9]; [23]): 23.7 % leaf area | green leaf area of the second-from-top leaf (F-1) (wheat variety Ritmo [9]; [23]): 9.8 % leaf area | green leaf area of the third-from-top leaf (F-2) (wheat variety Ritmo [9]; [23]): 1.9 % leaf area | green leaf area of the second-from-top leaf (F-1) (wheat variety Ritmo [9]; 49 days after second fungicide application): 0 % leaf area
